Values quoted from earlier work as cited in paper PMC2737817 (Bioorganic & medicinal chemistry letters, 2009).

What was measured:
GPI/LMMP = conditions: read-out: Functional Bioactivity GPI (IC50); ± S.E.M.; ref [42]; SEM
MVD = conditions: read-out: Functional Bioactivity MVD (IC50); ± S.E.M.; ref [42]; SEM

| Substance | IC50 (GPI/LMMP) [nM] | IC50 (MVD) [nM] |
| --- | --- | --- |
| Tyr-Pro-Phe-Phe-NH2 [EM-2] | 15 ± 2 | – |
| Tyr-Pro-Trp-Phe-NH2 [EM-1] | 28 ± 3 | 1710 ± 110 |
